# What was measured:
# [1] = Logistic regression of dose reduction/discontinuation vs predicted exposure; type: in vivo, human; details: for relationship between dose reduction or discontinuation due to AE and predicted serum trough concentrations or AUCτ: logistic regression, standard dosing assumed
# Experimental: Data were collected and processed using Microsoft Excel 2016 Version 16.0 (Microsoft Corporation, Redmond, WA, USA). Statistical calculations and visualization of results were performed with R Studio Version 1.2.5042 (RStudio Incorporation, Boston, MA, USA) running R version 4.0.5 (R Foundation for Statistical Computing, Vienna, Austria, 2020). For further analysis, serum concentrations were divided into groups according to time interval post-dose as follows: 0–5 h, 5–10 h, 10–14 h, and >14 h for (hydroxy-)dabrafenib and 0–10 h, 10–20 h, 20–30 h, and >30 h for trametinib. Concentrations < LLOQ were excluded from further statistical analyses. The concentrations of the same patient at the same dosage and within the same post-dose group were summarized into an individual mean serum concentration for descriptive statistical analysis to account for potential bias caused by the unbalanced number of samples per patient. […] The Wilcoxon […] test was used for unpaired samples. The correlations between individual PK parameters sampled from the conditional distribution during the generation of EBE (methods for estimation see below) and age, sex, body mass index (BMI), and co-medication were analyzed using analysis of variance (ANOVA) and Spearman’s correlation coefficient. Logistic regression was used to compare the risk of treatment discontinuations or dose reductions (dabrafenib dose reduction or discontinuation, trametinib dose reduction or discontinuation, or any dose reduction or discontinuation) with the corresponding predicted trough concentrations and area under the curve of a dosing interval (AUCτ) of dabrafenib, hydroxy-dabrafenib, and trametinib as well as with the composite predicted dabrafenib/hydroxy-dabrafenib trough concentration and with composite dabrafenib/hydroxy-dabrafenib AUCτ assuming standard dosing. The Hosmer–Lemeshow test was used to evaluate the goodness of fit for our logistic regression model. Due to the explorative nature of the study, p-values obtained from multiple comparisons were not corrected for multiple testing. A p-value < 0.05 was considered statistically significant.
# [2] = popPK model-informed VAMS-to-serum conversion model (self-sampled capillary blood); type: in vivo, human; details: for Ind V1/F / Ind CL/F / Ind Q/F: at-home VAMS; for Ind Kbp: MAP estimate from at least one paired sample
# Experimental: In addition to serum sampling, patients were asked to participate in the sampling of capillary blood in the clinic and at home. Micro-sampling was not obligatory for enrollment in the study. Micro-sampling was performed from a finger by drawing 20 µL of capillary blood onto the VAMS device MITRA® purchased from Neoteryx (Torrance, CA, USA). During outpatient visits, micro-sampling was conducted by medical staff in parallel to serum sampling. A maximum of six corresponding serum/VAMS samples were collected per patient. Additionally, patients were asked to perform at-home sampling after being instructed by trained staff. For each at-home sampling occasion, patients received a set including four VAMS devices. Patients were instructed to perform sampling at four different time points during the following four time slots: 9 a.m.–12 p.m., 12–3 p.m., 3–6 p.m., and 6–9 p.m. […] Samples collected during different time slots were still accepted. The time of last drug administration and sampling times were self-documented on a specific form. No special storage conditions were specified, and patients were asked to keep samples at ambient temperature until shipment. Samples were sent to the laboratory in an airtight and opaque bag containing desiccant for analysis. At-home samples were collected at up to four occasions per patient. Hematocrit was documented from the results of routine blood withdrawal for VAMS samples collected during outpatient visits. For at-home samples, the last known hematocrit was used. […]
# The conversion was based on a hematocrit-dependent formula (Figure 1). […] As proposed by Iacuzzi et al., the blood cell to plasma partition coefficient (Kbp) and intraindividual variability (IIV) were included in the conversion model and estimated from the consolidated data (Figure 1). For this purpose and to evaluate the conversion models, all the serum (Supplementary Table S1) and VAMS concentrations (collected at home or in the clinic) (Supplementary Table S2) were consolidated in a single dataset and fitted to the combined model using the EBE in Monolix 2021R1 (Lixoft SAS, Antony, France). Incorrectly sampled VAMS were removed from the dataset. The resulting individual predicted VAMS concentrations were compared with the observed VAMS concentrations. […] For trametinib, at least one paired sample per patient was included to generate the individual estimate for Kbp. A visual predictive check was performed to evaluate the predictive performance of the method.
# Figure 1 Development of the population pharmacokinetic (popPK) model-informed VAMS-to-serum conversion model. PopPK models by Balakirouchenane et al. were used to generate serum maximum a posteriori (MAP) estimates from volumetric absorptive micro-sampling (VAMS) for dabrafenib (A) and trametinib (B).
# [3] = Adverse events (CTCAE v5.0), dose reductions and treatment discontinuations; type: in vivo, human; details: for patients with dose reduction of the named drug due to AE during the study period: 27 patients
# From the text: AE was routinely assessed by the treating physicians at each serum sampling time point and graded according to the […] (CTCAE) Version 5.0 [35]. Additionally, permanent and temporary treatment discontinuations, dose reductions, and corresponding reasons were documented. Further recorded patient data included age, sex, height, weight, smoking status, dosing regimen, co-medication, and relevant laboratory parameters if ordered by the treating physician (platelet count, white blood cell count, absolute neutrophil count, absolute lymphocyte count, hemoglobin, bilirubin, aspartate and alanine aminotransferase, alkaline phosphatase, gamma-glutamyl transferase, amylase, lipase, creatine kinase, phosphate, sodium, glucose, serum creatinine, and estimated glomerular filtration rate). The treatment and frequency of visits were managed by the treating physicians without knowing the measured drug concentrations. AE was not assessed simultaneously with the collection of VAMS samples.
# [4] = set-up: method as in PMID 32283865; details: popPK model population value; cited from earlier work
# [5] = MAP estimate, patient DT002, 2 mg/24 h
# [6] = MAP estimate, patient DT010, 2 mg/24 h
# [7] = MAP estimate, patient DT014, 2 mg/24 h
# [8] = MAP estimate, patient DT018, 1 mg/24 h
# [9] = MAP estimate, patient DT019, 1.5 mg/24 h
# [10] = MAP estimate, patient DT026, 2 mg/24 h
# [11] = MAP estimate, patient DT027, 2 mg/24 h
compound,measurement,setting,value
CC(C)(C)c1nc(-c2cccc(NS(=O)(=O)c3c(F)cccc3F)c2F)c(-c2ccnc(N)n2)s1 [dabrafenib],relationship between dose reduction or discontinuation due to AE and predicted serum trough concentrations or AUCτ,[1],no significant relationships
same,Ind V1/F,"[2]; MAP estimate, patient DT002, 150 mg/12 h",30.8 L
same,Ind V1/F,"[2]; MAP estimate, patient DT005, 150 mg/12 h",24.7 L
same,Ind V1/F,"[2]; MAP estimate, patient DT010, 150 mg/12 h",14.3 L
same,Ind V1/F,"[2]; MAP estimate, patient DT014, 150 mg/12 h",30.2 L
same,Ind V1/F,"[2]; MAP estimate, patient DT018, 150 mg/12 h",82.5 L
same,Ind V1/F,"[2]; MAP estimate, patient DT019, 150 mg/12 h",39.5 L
same,Ind V1/F,"[2]; MAP estimate, patient DT026, 100 mg/12 h",40.3 L
same,Ind V1/F,"[2]; MAP estimate, patient DT027, 150 mg/12 h",71.5 L
same,Ind CL/F,"[2]; patient DT002, occasion 1, 150 mg/12 h",13.5 L/h
same,Ind CL/F,"[2]; patient DT002, occasion 2, 150 mg/12 h",17.2 L/h
same,Ind CL/F,"[2]; patient DT002, occasion 3, 150 mg/12 h",21.1 L/h
same,Ind CL/F,"[2]; patient DT005, occasion 1, 150 mg/12 h",20.7 L/h
same,Ind CL/F,"[2]; patient DT010, occasion 1, 150 mg/12 h",18.5 L/h
same,Ind CL/F,"[2]; patient DT010, occasion 2, 150 mg/12 h",33.3 L/h
same,Ind CL/F,"[2]; patient DT010, occasion 3, 150 mg/12 h",12.1 L/h
same,Ind CL/F,"[2]; patient DT014, occasion 1, 150 mg/12 h",30.1 L/h
same,Ind CL/F,"[2]; patient DT018, occasion 1, 150 mg/12 h",24.7 L/h
same,Ind CL/F,"[2]; patient DT018, occasion 2, 150 mg/12 h",14.9 L/h
same,Ind CL/F,"[2]; patient DT018, occasion 3, 150 mg/12 h",37.5 L/h
same,Ind CL/F,"[2]; patient DT018, occasion 4, 150 mg/12 h",32.3 L/h
same,Ind CL/F,"[2]; patient DT019, occasion 1, 150 mg/12 h",33.1 L/h
same,Ind CL/F,"[2]; patient DT019, occasion 2, 150 mg/12 h",15.8 L/h
same,Ind CL/F,"[2]; patient DT019, occasion 3, 150 mg/12 h",9.8 L/h
same,Ind CL/F,"[2]; patient DT019, occasion 4, 150 mg/12 h",24.2 L/h
same,Ind CL/F,"[2]; patient DT026, occasion 1, 100 mg/12 h",33.3 L/h
same,Ind CL/F,"[2]; patient DT026, occasion 2, 100 mg/12 h",41.1 L/h
same,Ind CL/F,"[2]; patient DT026, occasion 3, 100 mg/12 h",38.7 L/h
same,Ind CL/F,"[2]; patient DT027, occasion 1, 150 mg/12 h",28.6 L/h
same,Ind CL/F,"[2]; patient DT027, occasion 2, 150 mg/12 h",23.2 L/h
same,Ind CL/F,"[2]; patient DT027, occasion 3, 150 mg/12 h",36.5 L/h
same,patients with dose reduction of the named drug due to AE during the study period,[3],7.4%
same,dose reduction n (%),[3]; none,24 (88.9) n (%)
same,permanent treatment discontinuation n (%),[3]; none,19 (70.4) n (%)
same,temporary treatment discontinuation n (%),[3]; none,17 (63.0) n (%)
same,permanent treatment discontinuation n (%),[3]; reason: adverse events,2 (7.4) n (%)
same,CENT (central compartment) volume,[4],39.5 L
same,CL/F (oral clearance from central compartment),[4],17.7 L/h
same,PER (peripheral compartment) volume,[4],19.6 L
same,Tlag (lag time before beginning of absorption process),[4],0.5 h
same,ka (absorption rate constant),[4],1.8 h⁻¹
CC(=O)Nc1cccc(-n2c(=O)n(C3CC3)c(=O)c3c(Nc4ccc(I)cc4F)n(C)c(=O)c(C)c32)c1 [trametinib],relationship between dose reduction or discontinuation due to AE and predicted serum trough concentrations or AUCτ,[1],no significant relationships
same,effect of Cmin on probability of dose reduction or treatment discontinuation (logistic regression),"[1]; predicted trough concentration as exposure surrogate, intercept -0.349, p-value 0.0798",0.06178
same,Ind Kbp,[2]; patient DT002,4.84
same,Ind Kbp,[2]; patient DT010,4.98
same,Ind Kbp,[2]; patient DT014,5.36
same,Ind Kbp,[2]; patient DT018,3.89
same,Ind Kbp,[2]; patient DT019,3.91
same,Ind Kbp,[2]; patient DT026,4.38
same,Ind Kbp,[2]; patient DT027,4.41
same,Ind CL/F,[2]; [5],6.07 L/h
same,Ind Q/F,[2]; [5],97.65 L/h
same,Ind CL/F,[2]; [6],6.63 L/h
same,Ind Q/F,[2]; [6],125.55 L/h
same,Ind CL/F,[2]; [7],8.36 L/h
same,Ind Q/F,[2]; [7],129.17 L/h
same,Ind CL/F,[2]; [8],3.52 L/h
same,Ind Q/F,[2]; [8],185.04 L/h
same,Ind CL/F,[2]; [9],3.79 L/h
same,Ind Q/F,[2]; [9],77.82 L/h
same,Ind CL/F,[2]; [10],6.25 L/h
same,Ind Q/F,[2]; [10],106.5 L/h
same,Ind CL/F,[2]; [11],6.95 L/h
same,Ind Q/F,[2]; [11],65.04 L/h
same,population value for Kbp (blood cell to plasma partition coefficient),[2]; estimated from combined serum and VAMS dataset,4.62
same,IIV of ωKbp,[2]; extended trametinib model,0.31
same,patients with dose reduction of the named drug due to AE during the study period,[3],3.7%
same,patients who discontinued the named drug(s) permanently due to AE,"[3]; both drugs, or only trametinib",3.7%
same,dose reduction n (%),[3]; none,21 (77.8) n (%)
same,permanent treatment discontinuation n (%),[3]; none,18 (66.7) n (%)
same,temporary treatment discontinuation n (%),[3]; none,17 (63.0) n (%)
same,permanent treatment discontinuation n (%),[3]; reason: adverse events,3 (11.1) n (%)
same,CENT (central compartment) volume,[4],61.9 L
same,CL/F (oral clearance from central compartment),[4],5.83 L/h
same,PER (peripheral compartment) volume,[4],417 L
same,Tlag (lag time before beginning of absorption process),[4],0.709 h
same,ka (absorption rate constant),[4],0.913 h⁻¹
